The test system of assay [1] is NF-κB pathway (SEAP) in THP1-Dual cells. Put plainly: THP-1 Dual cell SEAP assay (L18-MDP stimulated). It counts as cell-based. The conditions noted are these: Homo sapiens, THP1-Dual, read-out: NFkB THP1 IC50.
Assay [2] concerns the target GST-RIPK2 fusion protein (human RIPK2 amino acids 1-310) (Homo sapiens (Human), UniProt O43353). Put plainly: RIPK2 binding competition assay (TR-FRET, Tracer 199). (In general: In TR-FRET formats the signal depends on donor and acceptor labels being close together.)
Where [3] appears, read: read-out: RIPK2 IC50, RIPK2 binding competition assay.

The term IC50 denotes the concentration that inhibits the measured activity by half.

Read-outs that look alike come from different tables or passages of the source.

Sequence of GST-RIPK2 fusion protein (human RIPK2 amino acids 1-310) (O43353 1-310): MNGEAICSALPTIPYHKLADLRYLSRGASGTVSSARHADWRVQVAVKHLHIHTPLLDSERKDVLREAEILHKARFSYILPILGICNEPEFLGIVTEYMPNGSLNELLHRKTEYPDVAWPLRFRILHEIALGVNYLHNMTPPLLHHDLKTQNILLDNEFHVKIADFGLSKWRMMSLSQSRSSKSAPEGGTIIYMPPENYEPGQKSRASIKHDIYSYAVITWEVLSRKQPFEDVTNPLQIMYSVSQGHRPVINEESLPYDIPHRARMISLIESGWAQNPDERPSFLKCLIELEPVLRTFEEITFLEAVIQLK

As for `COc1cc2ncc(-c3cccc(S(C)(=O)=O)c3)n2cc1S(=O)(=O)C(C)(C)C` [Example 151, 6-(tert-butylsulfonyl)-7-methoxy-3-(3-(methylsulfonyl)phenyl) imidazo[1,2-a]pyridine], the values for the IC50 in assay [1] and in assay [2] (setting [3]) were above 1000 nM and above 20 nM, respectively.
In the same order, the values of `COc1cc2ncc(-c3cc(F)nc(N[C@@H](C)CCO)c3)n2cc1S(=O)(=O)C(C)(C)C` [Example 236, (3S)-3-({6-fluoro-4-[7-methoxy-6-(2-methylpropane-2-sulfonyl)imidazo[1,2-a]pyridin-3-yl]pyridin-2-yl}amino)butan-1-ol] are below 50 nM and below 1 nM.
For `COc1cc2ncc(-c3cc(F)nc(N[C@@H]4CCC[C@@H](O)C4)c3)n2cc1S(=O)(=O)C(C)(C)C` (racemic) [Example 205, rac-(1R,3R)-3-((4-(6-(tert-butylsulfonyl)-7-methoxyimidazo[1,2-a]pyridin-3-yl)-6-fluoropyridin-2-yl)amino)cyclohexan-1-ol], the IC50 is 50 to 250 nM in assay [1] and 1 to 2.5 nM in assay [2].
Turning to `CC(C)(C)S(=O)(=O)c1ccc2ncc(-c3cc(F)nc(F)c3)n2c1` [Example 1, 6-(tert-butylsulfonyl)-3-(2,6-difluoropyridin-4-yl)imidazo[1,2-a]pyridine], the 50% inhibitory concentration (IC50) was above 1000 nM in assay [1] and above 20 nM in assay [2] (setting [3]).
In the same order, the values of `CNc1cc(-c2cnc3cc(OC)c(S(=O)(=O)C(C)(C)C)cn23)cc(F)n1` [Example 179, 4-(6-(tert-butylsulfonyl)-7-methoxyimidazo[1,2-a]pyridin-3-yl)-6-fluoro-N-methylpyridin-2-amine] are below 50 nM and below 1 nM.
The corresponding values for `COc1cc2ncc(-c3cc(N)cc(S(C)(=O)=O)c3)n2cc1S(=O)(=O)C(C)(C)C` [Example 37, 3-(6-(tert-butylsulfonyl)-7-methoxyimidazo[1,2-a]pyridin-3-yl)-5-(methylsulfonyl)aniline] are above 1000 nM and above 20 nM.
Regarding `COc1cc2ncc(-c3cc(F)nc(N[C@@H](C)CO)c3)n2cc1S(=O)(=O)C(C)(C)C` [Example 222, (2S)-2-({6-fluoro-4-[7-methoxy-6-(2-methylpropane-2-sulfonyl)imidazo[1,2-a]pyridin-3-yl]pyridin-2-yl}amino)propan-1-ol], the IC50 is below 50 nM in assay [1] and 1 to 2.5 nM in assay [2].
As for `COc1cc2ncc(-c3cc(NCCCO)nc(C(F)(F)F)c3)n2cc1S(=O)(=O)C(C)(C)C` [Example 232, 3-({4-[7-methoxy-6-(2-methylpropane-2-sulfonyl)imidazo[1,2-a]pyridin-3-yl]-6-(trifluoromethyl)pyridin-2-yl}amino)propan-1-ol], the IC50 lay within 250 to 1000 nM in assay [1] and 2.5 to 20 nM in assay [2].
In the same order, the values of `CCCS(=O)(=O)Nc1cc(-c2cnc3cc(OCC)c(S(=O)(=O)C(C)C)cn23)ccc1OC` [Example 133, N-{5-[7-ethoxy-6-(propane-2-sulfonyl)imidazo[1,2-a]pyridin-3-yl]-2-methoxyphenyl}propane-1-sulfonamide] are 250 to 1000 nM and 2.5 to 20 nM.
In the same order, the values of `CCCS(=O)(=O)Nc1cc(-c2cnc3cc(OC)c(S(=O)(=O)C(C)(C)C)cn23)cc(F)c1OC(F)F` [Example 284, N-(5-(6-(tert-butylsulfonyl)-7-methoxyimidazo[1,2-a]pyridin-3-yl)-2-(difluoromethoxy)-3-fluorophenyl)propane-1-sulfonamide] are 50 to 250 nM and 1 to 2.5 nM.
With `COc1cc2ncc(-c3cc(NS(C)(=O)=O)c(OC)c(OC)c3)n2cc1S(=O)(=O)C(C)(C)C` [Example 285, N-(5-(6-(tert-butylsulfonyl)-7-methoxyimidazo[1,2-a]pyridin-3-yl)-2,3-dimethoxyphenyl)methane sulfonamide], the IC50 is below 50 nM in assay [1] and below 1 nM in assay [2] (setting [3]).
`CC(C)(C)S(=O)(=O)c1ccc2ncc(-c3cc(N)nc(F)c3)n2c1` [Example 330, 4-(6-(tert-butylsulfonyl)imidazo[1,2-a]pyridin-3-yl)-6-fluoropyridin-2-amine]: the values for the IC50 in assay [1] and in assay [2] were 250 to 1000 nM and 2.5 to 20 nM, respectively.
On to `CCCS(=O)(=O)Nc1cc(OC)cc(-c2cnc3cc(OC)c(S(=O)(=O)C(C)(C)C)cn23)c1` [Example 131, N-{3-methoxy-5-[7-methoxy-6-(2-methylpropane-2-sulfonyl)imidazo[1,2-a]pyridin-3-yl]phenyl}propane-1-sulfonamide], for which the half-maximal inhibitory concentration (IC50) in assay [1] is below 50 nM; in assay [2] (setting [3]), below 1 nM.
In the same order, the values of `COc1cc2ncc(-c3cc(F)nc(NCc4ccc(=O)[nH]c4)c3)n2cc1S(=O)(=O)C(C)(C)C` [Example 184, 5-(((4-(6-(tert-butylsulfonyl)-7-methoxyimidazo[1,2-a]pyridin-3-yl)-6-fluoropyridin-2-yl)amino)methyl) pyridin-2(1H)-one] are 50 to 250 nM and below 1 nM.
For `COc1cc2ncc(-c3cc(N)cc(F)c3)n2cc1S(=O)(=O)C(C)(C)C` [Example 157, 3-(6-(tert-butylsulfonyl)-7-methoxyimidazo[1,2-a]pyridin-3-yl)-5-fluoroaniline], the IC50 in assay [1] fell in the range of 50 to 250 nM; in assay [2] it was 2.5 to 20 nM.
For the compound `CCCS(=O)(=O)Nc1c(OC)ccc(-c2cnc3cc(OC)c(S(=O)(=O)C(C)(C)C)cn23)c1F` [Example 257, N-(3-(6-(tert-butylsulfonyl)-7-methoxyimidazo[1,2-a]pyridin-3-yl)-2-fluoro-6-methoxyphenyl)propane-1-sulfonamide], the IC50 in assay [1] was above 1000 nM; in assay [2] (setting [3]), above 20 nM.
In the case of `COc1cn2ncc(-c3cnc(N)c(F)c3)c2cc1S(=O)(=O)C(C)(C)C` [Example 97, 5-(5-(tert-butylsulfonyl)-6-methoxypyrazolo[1,5-a]pyridin-3-yl)-3-fluoropyridin-2-amine], the IC50 in assay [1] lay within 250 to 1000 nM; in assay [2], 2.5 to 20 nM.
The corresponding values for `CC(C)(O)CCNc1cc(-c2cnc3ccc(S(=O)(=O)C(C)(C)C)cn23)cc(F)n1` [Example 174, 4-((4-(6-(tert-butylsulfonyl)imidazo [1,2-a]pyridin-3-yl)-6-fluoropyridin-2-yl)amino)-2-methylbutan-2-ol] are 50 to 250 nM and 2.5 to 20 nM.
In the case of `COc1cc2ncc(-c3cc(F)nc(NC[C@H](F)CO)c3)n2cc1S(=O)(=O)C(C)(C)C` [Example 231, (2S)-2-fluoro-3-({6-fluoro-4-[7-methoxy-6-(2-methylpropane-2-sulfonyl)imidazo[1,2-a]pyridin-3-yl]pyridin-2-yl}amino)propan-1-ol], the figures for the IC50 in assay [1] and in assay [2] (setting [3]) were below 50 nM and below 1 nM, respectively.
Turning to `COc1cc2ncc(-c3cc(C)c(N)nc3F)n2cc1S(=O)(=O)C(C)(C)C` [Example 96, 5-(6-(tert-butylsulfonyl)-7-methoxyimidazo[1,2-a]pyridin-3-yl)-6-fluoro-3-methylpyridin-2-amine], the values for the IC50 in assay [1] and in assay [2] were 250 to 1000 nM and 2.5 to 20 nM, respectively.
As for `COc1cc2ncc(-c3cncc(N)c3)n2cc1S(=O)(=O)C(C)(C)C` [Example 30, 5-(6-(tert-butylsulfonyl)-7-methoxyimidazo[1,2-a]pyridin-3-yl)pyridin-3-amine], the IC50 is above 1000 nM in assay [1] and above 20 nM in assay [2] (setting [3]).
Turning to `COc1cc(-c2cnc3cc(OC)c(S(=O)(=O)C(C)(C)C)cn23)c(F)cc1N` [Example 90, 4-(6-(tert-butylsulfonyl)-7-methoxyimidazo[1,2-a]pyridin-3-yl)-5-fluoro-2-methoxyaniline], the IC50 in assay [1] fell in the range of 250 to 1000 nM; in assay [2] it was 2.5 to 20 nM.
The corresponding values for `COc1cc2ncc(-c3cccc(NS(=O)(=O)C(C)(C)C)c3)n2cc1S(=O)(=O)C(C)(C)C` [Example 277, N-(3-(6-(tert-butylsulfonyl)-7-methoxyimidazo[1,2-a]pyridin-3-yl)phenyl)-2-methylpropane-2-sulfonamide] are below 50 nM and 2.5 to 20 nM.
Consider `COc1cc2ncc(-c3cc(Cl)nc(NCCCO)c3)n2cc1S(=O)(=O)C(C)(C)C` [Example 327, 3-((4-(6-(tert-butylsulfonyl)-7-methoxyimidazo[1,2-a]pyridin-3-yl)-6-chloropyridin-2-yl)amino)propan-1-ol], for which the IC50 in assay [1] was below 50 nM; in assay [2] it was 1 to 2.5 nM.
For the compound `COc1cc2ncc(-c3cccc(NCCCO)c3)n2cc1S(=O)(=O)C(C)(C)C` [Example 320, 3-((3-(6-(tert-butylsulfonyl)-7-methoxyimidazo[1,2-a]pyridin-3-yl)phenyl)amino)propan-1-ol], the IC50 was above 1000 nM in assay [1] and above 20 nM in assay [2] (setting [3]).
The corresponding values for `COc1cc2ncc(-c3cc(F)nc(NCC(F)(F)CO)c3)n2cc1S(=O)(=O)C(C)(C)C` [Example 228, 2,2-difluoro-3-({6-fluoro-4-[7-methoxy-6-(2-methylpropane-2-sulfonyl)imidazo[1,2-a]pyridin-3-yl]pyridin-2-yl}amino)propan-1-ol] are below 50 nM and below 1 nM.
In the same order, the values of `COc1cc2ncc(-c3cc(F)nc(N[C@H]4C[C@H](O)C4)c3)n2cc1S(=O)(=O)C(C)(C)C` [Example 193, (1r,3r)-3-((4-(6-(tert-butylsulfonyl)-7-methoxyimidazo[1,2-a]pyridin-3-yl)-6-fluoropyridin-2-yl)amino)cyclobutan-1-ol] are below 50 nM and below 1 nM.
`COc1cc(N)cc(-c2cnc3cc(OC)c(S(=O)(=O)C(C)(C)C)cn23)c1` [Example 46, 3-(6-(tert-butylsulfonyl)-7-methoxyimidazo[1,2-a]pyridin-3-yl)-5-methoxyaniline]: the concentration for half-maximal inhibition (IC50) in assay [1] lay within 50 to 250 nM; in assay [2], 2.5 to 20 nM.
In the case of `COc1cc2ncc(-c3ccc(N)c(F)c3F)n2cc1S(=O)(=O)C(C)(C)C` [Example 83, 4-(6-(tert-butylsulfonyl)-7-methoxyimidazo[1,2-a]pyridin-3-yl)-2,3-difluoroaniline], the values for the IC50 in assay [1] and in assay [2] (setting [3]) were above 1000 nM and above 20 nM, respectively.

(Values after patent US20250346593A1, “IMIDAZO(1,2-1)PYRIDINE DERIVATIVES AS RIPK2 INHIBITORS” (Interline Therapeutics, Inc., priority 2022, published 2025).)
